Earlier results as cited in patent publication US20050234025A1, “Compositions comprising one or more policosanols and/or policosanoic acids combined with sterol and/or steroid based ascorbic acid derivatives, and uses thereof” (FORBES MEDI-TECH INC., priority 2004, published 2005).

Tested on: mice
Conditions: Ben-David et al.

C[C@]12CC[C@H](O)CC1=CC[C@@H]1[C@@H]2CC[C@]2(C)C(=O)CC[C@@H]12 [DHEA, dehydroepiandrostrone]
effect on cholesterol (anti-hypercholesterolemic effect): anti-hypercholesterolemic effect
